# Measurements taken from patent US5684222A (priority 1994, dated 1997).
# System: TNFRp55+/+ mice
# Conditions: mouse, in vivo
smiles,measurement,value
"N[C@H]1C(O)O[C@H](CO)[C@H](O)[C@@H]1O (stereo partly drawn) [D-Gal, D-galactosamine]",TNFRp55 +/+ dead/group,0/4
